# Where two headings read alike, the source gives them in different places.
# What was measured:
# [1] = biological target: T1, St-B17 serotonin receptor (Rattus norvegicus, UniProt P31388, L57V); test: [125I]-LSD competition binding, Cos-7 cell membranes expressing St-B17; design: expressed in transfected cells; host or cells: Cos-7 cells, transient transfection, crude membranes; settings: for affinity for St-B17 (in words): qualitative statement
# Method: (§1) This experiment was performed on Cos-7 cell membranes expressing the St-B17 serotonin receptor.
# [2] = biological target: T2, St-B17 stably expressed in HEK-293 cells (Rattus norvegicus, UniProt P31388, L57V); test: cAMP accumulation in intact HEK-293 cells stably expressing St-B17; type: cell-based
# T2 construct: expressed in transfected cells
# T2 sequence (P31388 with tags, fused parts or gaps L57V): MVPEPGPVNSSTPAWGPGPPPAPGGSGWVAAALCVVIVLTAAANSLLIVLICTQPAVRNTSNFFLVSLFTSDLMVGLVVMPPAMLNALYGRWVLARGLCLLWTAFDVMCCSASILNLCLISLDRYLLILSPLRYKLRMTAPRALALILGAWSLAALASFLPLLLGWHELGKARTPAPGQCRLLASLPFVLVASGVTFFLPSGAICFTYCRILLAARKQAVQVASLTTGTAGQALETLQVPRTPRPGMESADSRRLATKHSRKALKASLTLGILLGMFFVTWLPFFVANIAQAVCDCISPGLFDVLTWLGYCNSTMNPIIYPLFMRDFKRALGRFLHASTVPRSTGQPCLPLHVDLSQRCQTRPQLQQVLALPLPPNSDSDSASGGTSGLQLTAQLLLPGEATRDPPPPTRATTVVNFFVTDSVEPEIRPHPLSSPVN
# Method: Human Embryonic Kidney cells (HEK 293 available from the ATCC) were stably co-transfected in 150mm dishes by the CaPO4 technique with 30 μg of pSRα-B17 and 3 μg of pMam-neo (INVITROGEN). These HEK 293 cells were then subjected to selection with 600 μg/ml genetecin (G418) (GIBCO). The resistant colonies were collected and screened for receptor expression by [^125I]-LSD binding as described in Example 6.
# Intracellular cAMP levels were determined after a 5 minute incubation of intact cells with various test compounds at 37° C. in the presence of the cAMP phosphodiesterase inhibitor RO-20-1724, using a modification of a previously described cAMP assay (Monsma, F. J., Jr., Barton, A. C., and Sibley, D. R. (1990) J. Neurochemistry 54, 1200-1207) wherein the adrenal cAMP binding protein was replaced with 0.8 mg/ml protein kinase A in water.
# [3] = biological target: T3, St-B17 serotonin receptor (Rattus norvegicus, UniProt P31388); test: [125I]-LSD competition binding, Cos-7 cell membranes expressing St-B17; settings: read-out: Ki vs. [125I]-LSD, Mean ± SEM
# T3 construct: expressed in transfected cells; host or cells: Cos-7 cells, transient transfection, crude membranes
# T3 sequence (P31388 with tags, fused parts or gaps L57V): as above
# Method: as §1
# [4] = biological target: T1, St-B17 serotonin receptor; test: [3H]-5-HT competition binding, Cos-7 cell membranes expressing St-B17; design: expressed in transfected cells; host or cells: Cos-7 cells, transient transfection, crude membranes
# [5] = biological target: T1, St-B17 serotonin receptor
# [6] = biological target: T1, St-B17 serotonin receptor; test: Saturation analysis of [3H]-5-HT binding in transfected Cos-7 cells; design: expressed in transfected cells; host or cells: Cos-7 cells, transient transfection, crude membranes
# Excerpt: The binding of [^3H]-5-HT was similarly not affected by the addition of guanine nucleotides.
# [7] = test system: adenylyl cyclase activity in the NCB-20 neuroblastoma cell line; settings: NCB-20 cells, literature; read-out: EC50, activation of adenylyl cyclase; cited from earlier work
# [8] = screened compounds, radioligand not restated, read-out: inhibition constant (Ki)
# [9] = Ki vs. [125I]-LSD, Mean ± SEM, 0.5 nM [125I]-LSD, Cos-7 membranes, n=3, Cheng-Prussoff from IC50
# [10] = inhibition constant (Ki), screened compounds, radioligand not restated
# [11] = 10 μM final concentration, FIG. 5
# [12] = 0.5 nM [125I]-LSD, Cos-7 membranes, n=3, Cheng-Prussoff from IC50
# [13] = read-out: Ki vs. [3H]-5-HT, Mean ± SEM
# [14] = 5 nM [3H]-5-HT, Cos-7 membranes, n=3, Cheng-Prussoff from IC50, read-out: Ki vs. [3H]-5-HT, Mean ± SEM
# T1 sequence (P31388 with tags, fused parts or gaps L57V): as above
molecule,measurement,setting,value
COc1cc(N)c(Cl)cc1C(=O)NC1CN2CCC1CC2 (centres unmarked) [zacopride],Ki,[1]; [8],> 10000 nM
CN1C2CCCC1CC(NC(=O)c1nn(C)c3ccccc13)C2 (centres unmarked) [BRL 43694A],Ki,[1]; [8],> 10000 nM
NCCc1c[nH]c2ccc(OCc3ccccc3)cc12 [5-Benzyloxytryptamine],Ki,[1]; [9],110 ± 17.9 nM
CCNC(C)Cc1cccc(C(F)(F)F)c1 (centres unmarked) [fenfluramine],Ki,[1]; [10],> 10000 nM
CNC[C@H](O)c1ccc(O)c(O)c1 [epinephrine],Ki,[1]; [8],> 10000 nM
CC(C)C[C@H]1C(=O)N2CCC[C@H]2[C@]2(O)O[C@](NC(=O)[C@@H]3C[C@@H]4c5cccc6[nH]cc(c56)C[C@H]4N(C)C3)(C(C)C)C(=O)N12 [Dihydroergocryptine],Ki,[1]; [9],161 ± 13.2 nM
COc1cc(N)c(Cl)cc1C(=O)NC1CCN2CCCC1C2 (centres unmarked) [BRL 24924],Ki,[1]; [8],> 10000 nM
COc1ccc2[nH]cc(CCN)c2c1 [5-methoxytryptamine],effect on cAMP levels on their own (in words),[2]; [11],elicit an increase in cAMP levels
same,Ki,[1]; [9],38.9 ± 3.95 nM
CC(C)NCC(O)COc1cccc2[nH]ccc12 (centres unmarked) [pindolol],Ki,[1]; [8],> 10000 nM
"CN1[C@@H]2CC[C@H]1C[C@@H](OC(=O)c1c[nH]c3ccccc13)C2 [ICS 205,930]",affinity for St-B17 (in words),[1],virtually no affinity
Clc1ccc2c(c1)C(N1CCNCC1)=Nc1ccccc1O2 [Amoxipine],Ki,[3]; [12],30.4 ± 1.64 nM
same,effect on cAMP levels on their own (in words),[2]; [11],no significant effect on cAMP levels
same,effect on the cAMP response elicited by 5-HT (in words),[2]; [11],substantially inhibit the response elicited by 5-HT
same,functional classification at St-B17 receptor,[2]; [11],antagonists
NCCc1ccc(O)c(O)c1 [dopamine],Ki,[1]; [8],> 10000 nM
CN(C)CCC=C1c2ccccc2CCc2ccccc21 [Amitriptyline],Ki,[3]; [12],69.6 ± 7.21 nM
same,Ki,[4]; [13],82 ± 6 nM
"CNCCc1c[nH]c2ccc(O)cc12 [5-Hydroxy-N,ω-methyltryptamine]",Ki,[3]; [12],58 ± 8.32 nM
"CCN(CC)C(=O)[C@@H]1C=C2c3cccc4[nH]c(I)c(c34)C[C@H]2N(C)C1 [[^125I]-LSD, lysergic acid diethylamide]",Kd,"[5]; KD, representative experiment (FIG. 1, scatchard analysis), single representative experiment",1.5 nM
same,Kd,"[5]; dissociation constant (KD), [125I]-LSD saturation binding, Cos-7 membranes, mean n=3",1.26 nM
same,maximum binding (Bmax),[5]; range over experiments,2-5 pMoles/mg protein
same,"Bmax, representative experiment (FIG. 1)",[5]; single representative experiment,3.4 pMoles mg protein^−1
same,affinity for St-B17 (in words),[1],relatively high affinity
COc1ccccc1N1CCN(CCCCN2C(=O)c3ccccc3C2=O)CC1 [NAN-190],Ki,[1]; [10],> 10000 nM
CN(C)CCCC1(c2ccc(F)cc2)OCc2cc(C#N)ccc21 (centres unmarked) [citalopram],Ki,[1]; [10],> 10000 nM
CN1C[C@H](CC#N)C[C@@H]2c3cccc4[nH]c(Cl)c(c34)C[C@H]21 [Lergotrile],Ki,[3],36.5 ± 1.04 nM
CN1C[C@H](C(=O)N[C@]2(C)O[C@@]3(O)[C@@H]4CCCN4C(=O)[C@H](Cc4ccccc4)N3C2=O)C[C@@H]2c3cccc4[nH]cc(c34)C[C@H]21 [Dihydroergotamine],effect on cAMP levels on their own (in words),[2]; [11],stimulate cAMP accumulation
same,functional classification at St-B17 receptor,[2]; [11],partial agonists
same,Ki,[1]; [9],13.1 ± 0.9 nM
same,Ki,[4],5.4 ± 5.4 nM
CNCCC=C1c2ccccc2CCc2ccccc21 [Nortriptyline],Ki,[3]; [12],147 ± 2.61 nM
COc1ccccc1N1CCNCC1 [2-MPP],Ki,[3]; [12],3050 ± 321 nM
CN(C)C/C=C(/c1ccc(Br)cc1)c1cccnc1 [zimelidine],Ki,[1]; [8],> 10000 nM
NCCc1c[nH]c2ccc(O)cc12 [[^3H]-5-HT],Bmax,[6]; [3H]-5-HT saturation binding,1-3 pMoles/mg protein
same,Kd,"[6]; [3H]-5-HT saturation binding, n=3",37 nM
same,effect of guanine nucleotides on binding,[6]; addition of guanine nucleotides,not affected
COc1ccc2[nH]cc(CCNC(C)=O)c2c1 [melatonin],Ki,[1]; [8],> 10000 nM
CN1C[C@@H](NS(=O)(=O)N(C)C)C[C@@H]2c3cccc4c3c(cn4C)C[C@H]21 [Mesulergine],Ki,[3]; [12],1720 ± 248 nM
"NCCc1c[nH]c2ccc(O)cc12 [5-HT, 5-hydroxytryptamine]",Ki,[3]; [12],151 ± 12.8 nM
same,EC50,[2],145 nM
same,EC50,[7],300 nM
same,influence of guanine nucleotide analogue GppNHp on affinity,[1]; addition of GppNHp,not influenced
same,Hill coefficient for the competition curve,[1]; vs. [125I]-LSD,not significantly different from unity
CN1CCN(c2nc3cc(C(F)(F)F)ccc3n3cccc23)CC1.O=C(O)/C=C\C(=O)O.O=C(O)/C=C\C(=O)O [CGS 12066B],Ki,[3]; [12],738 ± 66.6 nM
same,affinity for St-B17 (in words),[1],relatively low affinity
c1ccc2c(c1)OCC(C1=NCCN1)O2 (centres unmarked) [idazoxan],Ki,[1]; [8],> 10000 nM
CN1C[C@H](CNC(=O)OCc2ccccc2)C[C@@H]2c3cccc4c3c(cn4C)C[C@H]21 [Metergoline],Ki,[3]; [12],30 ± 0.38 nM
same,Ki,[4]; [13],61 ± 23 nM
c1ccc2c(N3CCNCC3)cccc2c1 [1(1-naphthyl)piperazine],Ki,[1]; [9],104 ± 13.8 nM
NCCc1ccc(O)cc1 [tyramine],Ki,[1]; [8],> 10000 nM
O=C(c1ccc(F)cc1)C1CCN(CCn2c(=O)[nH]c3ccccc3c2=O)CC1 [ketanserin],affinity for St-B17 (in words),[1],relatively low affinity
same,Ki,[1]; [8],> 10000 nM
NCCc1c[nH]cn1 [histamine],Ki,[1]; [8],> 10000 nM
O=C(CCCN1CCC2(CC1)C(=O)NCN2c1ccccc1)c1ccc(F)cc1 [spiroperidol],Ki,[1]; [8],> 10000 nM
Nc1ccc(CCN2CCN(c3cccc(C(F)(F)F)c3)CC2)cc1 [PAPP],Ki,[3]; [12],806 ± 75.2 nM
NCC(O)c1ccc(O)cc1 (centres unmarked) [octopamine],Ki,[1]; [8],> 10000 nM
CCCN1C[C@H](CSC)C[C@@H]2c3cccc4[nH]cc(c34)C[C@H]21 [Pergolide],Ki,[3]; [12],29.9 ± 7.31 nM
same,affinity for St-B17 (in words),[1],relatively high affinity
CN1CCN(C2=Nc3ccccc3Oc3ccc(Cl)cc32)CC1 [Loxapine],Ki,[3]; [12],64.75 ± 0.6 nM
same,Ki,[4]; [13],56 ± 1.5 nM
CN1[C@@H]2CC[C@H]1C[C@@H](OC(=O)c1cc(Cl)cc(Cl)c1)C2 [MDL 72222],affinity for St-B17 (in words),[1],virtually no affinity
same,Ki,[1]; [8],> 10000 nM
"N,ω-Methyltryptamine",Ki,[3]; [12],342 ± 32.2 nM
Fc1ccc([C@@H]2CCNC[C@H]2COc2ccc3c(c2)OCO3)cc1 [paroxetine],Ki,[1]; [10],> 10000 nM
Clc1cccc(N2CCNCC2)c1 [mCPP],Ki,[3]; [12],2310 ± 343 nM
CCCN(CCC)C1CCc2cccc(O)c2C1 (centres unmarked) [8-OH-DPAT],affinity for St-B17 (in words),[1],relatively low affinity
"COc1ccc2[nH]cc(CCN(C)C)c2c1 [N,N-Dimethyl-5-methoxytryptamine]",Ki,[1]; [9],79.8 ± 3.86 nM
NC[C@H](O)c1ccc(O)c(O)c1 [norepinephrine],Ki,[1]; [8],> 10000 nM
NCCc1c[nH]c2ccc(C(N)=O)cc12 [5-Carboxamidotryptamine],Ki,[3]; [12],774 ± 84.4 nM
same,effect on cAMP levels on their own (in words),[2]; [11],elicit an increase in cAMP levels
same,Ki,[4]; [14],253 ± 20 nM
Cc1nc2sccn2c(=O)c1CCN1CCC(=C(c2ccc(F)cc2)c2ccc(F)cc2)CC1 [Ritanerin],Ki,[3]; [12],44.1 ± 4.35 nM
same,Ki,[4]; [14],16 ± 2 nM
FC(F)(F)c1cccc(N2CCNCC2)c1 [TFMPP],Ki,[1]; [9],482 ± 37.2 nM
CCN(CC)C(=O)[C@@H]1C=C2c3cccc4[nH]c(Br)c(c34)C[C@H]2N(C)C1 [2-Br-LSD],Ki,[3]; [12],17.1 ± 1.11 nM
CC[C@@H](CO)NC(=O)[C@@H]1C=C2c3cccc4c3c(cn4C)C[C@H]2N(C)C1 [MethyscrGide],Ki,[3]; [12],372 ± 72.7 nM
